ChEMBL document CHEMBL5625242, “Discovery of brain permeable 2-Azabicyclo[2.2.2]octane sulfonamides as a novel class of presenilin-1 selective γ-secretase inhibitors” (Eur J Med Chem, 2023)
≈ marks a conversion by molar mass, not a printed value.

How the values were obtained:
[1] = Inhibition of human PSEN1/APH1A expressed in MEF cells with Psen1/2 double knockout/Aph1ABC triple knockout by ELISA; format: cell-based
[2] = Inhibition of human PSEN1/APH1B expressed in MEF cells with Psen1/2 double knockout/Aph1ABC triple knockout by ELISA; format: cell-based
[3] = Inhibition of human PSEN2/APH1A expressed in MEF cells with Psen1/2 double knockout/Aph1ABC triple knockout by ELISA; format: cell-based
[4] = Inhibition of human PSEN2/APH1B expressed in MEF cells with Psen1/2 double knockout/Aph1ABC triple knockout by ELISA; format: cell-based
Homo sapiens [5] = organism: Homo sapiens; experiment: Selectivity ratio of IC50 for human PSEN2/APH1A expressed in MEF cells with Psen1/2 double knockout/Aph1ABC triple knockout to IC50 for human PSEN1/APH1B expressed in MEF cells with Psen1/2 double knockout/Aph1ABC triple knockout; format: cell-based
Homo sapiens [6] = organism: Homo sapiens; experiment: Selectivity ratio of IC50 for human PSEN2/APH1B expressed in MEF cells with Psen1/2 double knockout/Aph1ABC triple knockout to IC50 for human PSEN1/APH1B expressed in MEF cells with Psen1/2 double knockout/Aph1ABC triple knockout; format: cell-based
Homo sapiens [7] = organism: Homo sapiens; experiment: Selectivity ratio of IC50 for human PSEN1/APH1A expressed in MEF cells with Psen1/2 double knockout/Aph1ABC triple knockout to IC50 for human PSEN1/APH1B expressed in MEF cells with Psen1/2 double knockout/Aph1ABC triple knockout; format: cell-based
Cytochrome P450 2D6 = Cytochrome P450 2D6 (Homo sapiens, UniProt P10635); experiment: Inhibition of human CYP2D6 using dextrometorphan as substrate by fluorescence based assay; format: ADME
[8] = Metabolic stability in human liver microsomes assessed as intrinsic clearance; format: ADME, Microsome; conditions: microsomes
[9] = Metabolic stability in mouse liver microsomes assessed as intrinsic clearance; format: ADME, Microsome; conditions: microsomes
Cytochrome P450 3A4 = Cytochrome P450 3A4 (Homo sapiens, UniProt P08684); experiment: Inhibition of human CYP3A4 using midazolam as substrate by fluorescence based assay; format: ADME
Cytochrome P450 2C8 = molecular target: T1, Cytochrome P450 2C8 (Homo sapiens, UniProt P10632); experiment: Inhibition of human CYP2C8 using amodiaquine as substrate by fluorescence based assay; format: ADME
T1 sequence (P10632 whole entry): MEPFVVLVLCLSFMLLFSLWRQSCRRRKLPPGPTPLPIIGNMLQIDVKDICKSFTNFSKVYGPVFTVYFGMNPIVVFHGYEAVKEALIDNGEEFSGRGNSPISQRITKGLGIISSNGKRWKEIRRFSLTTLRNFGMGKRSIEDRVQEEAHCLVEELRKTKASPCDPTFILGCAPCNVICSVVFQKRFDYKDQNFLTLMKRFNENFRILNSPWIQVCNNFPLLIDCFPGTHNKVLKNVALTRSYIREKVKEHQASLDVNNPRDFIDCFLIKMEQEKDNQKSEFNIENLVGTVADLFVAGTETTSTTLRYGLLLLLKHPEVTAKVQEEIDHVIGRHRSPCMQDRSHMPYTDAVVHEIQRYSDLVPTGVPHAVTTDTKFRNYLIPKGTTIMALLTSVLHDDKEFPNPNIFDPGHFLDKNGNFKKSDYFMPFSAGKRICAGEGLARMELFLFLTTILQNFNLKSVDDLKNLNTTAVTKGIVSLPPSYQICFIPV

Cytochrome P450 2C9 = Cytochrome P450 2C9 (Homo sapiens, UniProt P11712); experiment: Inhibition of human CYP2C9 using tolbutamide as substrate by fluorescence based assay; format: ADME
Cytochrome P450 2C19 = Cytochrome P450 2C19 (Homo sapiens, UniProt P33261); experiment: Inhibition of human CYP2C19 using S-mephenytoin as substrate by fluorescence based assay; format: ADME
Cytochrome P450 1A2 = molecular target: T2, Cytochrome P450 1A2 (Homo sapiens, UniProt P05177); experiment: Inhibition of human CYP1A2 using phenacetin as substrate by fluorescence based assay; format: ADME
T2 sequence (P05177 whole entry): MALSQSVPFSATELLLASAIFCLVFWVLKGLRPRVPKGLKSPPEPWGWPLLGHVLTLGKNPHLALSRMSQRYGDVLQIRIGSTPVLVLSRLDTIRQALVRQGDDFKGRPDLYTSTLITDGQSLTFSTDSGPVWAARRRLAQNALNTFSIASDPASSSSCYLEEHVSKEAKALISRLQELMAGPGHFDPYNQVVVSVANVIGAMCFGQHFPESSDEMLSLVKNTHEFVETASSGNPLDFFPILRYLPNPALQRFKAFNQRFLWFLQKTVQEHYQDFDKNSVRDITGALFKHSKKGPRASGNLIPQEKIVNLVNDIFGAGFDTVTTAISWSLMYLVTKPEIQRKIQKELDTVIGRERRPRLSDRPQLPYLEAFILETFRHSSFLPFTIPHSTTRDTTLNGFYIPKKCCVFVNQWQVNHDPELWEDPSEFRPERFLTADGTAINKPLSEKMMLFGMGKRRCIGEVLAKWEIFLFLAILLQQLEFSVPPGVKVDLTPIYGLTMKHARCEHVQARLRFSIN

[10] = Protein binding in human plasma assessed as free fraction at 5 uM incubated for 4.5 hrs by HPLC analysis; format: ADME, cell-free
[11] = Protein binding in mouse plasma assessed as free fraction at 5 uM incubated for 4.5 hrs by HPLC analysis; format: ADME, cell-free
[12] = Free fraction in rat brain homogenate at 5 uM incubated for 5 hrs by HPLC-MS/MS analysis; format: ADME, tissue-based
[13] = Kinetic solubility of compound at pH 2; format: physicochemical; conditions: buffer, read-out: Kinetic_solubility
[14] = Kinetic solubility of compound at pH 4; format: physicochemical; conditions: buffer, read-out: Kinetic_solubility
[15] = Kinetic solubility of compound at pH 7.4; format: physicochemical; conditions: buffer, read-out: Kinetic_solubility
human MDR1 [16] = experiment: Apparent permeability across apical to basal side in MDCK cells transfected with human MDR1 at 5 uM by LC-MS/MS analysis; format: ADME, cell-based, Canis lupus familiaris; conditions: dog
human MDR1 [17] = experiment: Efflux ratio of apparent permeability basal to apical side over apical to basal side in MDCK cells transfected with human MDR1 at 5 uM by LC-MS/MS analysis; format: ADME, cell-based, Canis lupus familiaris; conditions: dog
[18] = molecular target: Voltage-gated inwardly rectifying potassium channel KCNH2 (Homo sapiens, UniProt Q12809); experiment: Inhibition of hERG; format: toxicity
calcium channel = experiment: Inhibition of rat calcium channel; format: toxicity
sodium channel = experiment: Inhibition of rat sodium channel; format: toxicity
[19] = Drug concentration in Swiss mouse plasma at 2.5 mg/kg, iv measured at 5 mins post-dose; format: ADME, organism-based
[20] = Drug concentration in Swiss mouse brain at 2.5 mg/kg, iv measured at 5 mins post-dose; format: ADME, organism-based; conditions: read-out: Ct
[21] = Ratio of drug concentration in brain to plasma of Swiss mouse at 2.5 mg/kg, iv measured at 5 mins post-dose; format: ADME, organism-based; conditions: read-out: BPR
[22] = Unbound drug concentration in Swiss mouse plasma at 2.5 mg/kg, iv measured at 5 mins post-dose; format: ADME, organism-based; conditions: in vivo
[23] = Ratio of unbound drug concentration in brain to plasma in Swiss mouse at 2.5 mg/kg, iv measured at 5 mins post-dose; format: ADME, organism-based; conditions: read-out: K(p,uu,brain)

Cytochrome P450 2C9, sequence (P11712 whole entry): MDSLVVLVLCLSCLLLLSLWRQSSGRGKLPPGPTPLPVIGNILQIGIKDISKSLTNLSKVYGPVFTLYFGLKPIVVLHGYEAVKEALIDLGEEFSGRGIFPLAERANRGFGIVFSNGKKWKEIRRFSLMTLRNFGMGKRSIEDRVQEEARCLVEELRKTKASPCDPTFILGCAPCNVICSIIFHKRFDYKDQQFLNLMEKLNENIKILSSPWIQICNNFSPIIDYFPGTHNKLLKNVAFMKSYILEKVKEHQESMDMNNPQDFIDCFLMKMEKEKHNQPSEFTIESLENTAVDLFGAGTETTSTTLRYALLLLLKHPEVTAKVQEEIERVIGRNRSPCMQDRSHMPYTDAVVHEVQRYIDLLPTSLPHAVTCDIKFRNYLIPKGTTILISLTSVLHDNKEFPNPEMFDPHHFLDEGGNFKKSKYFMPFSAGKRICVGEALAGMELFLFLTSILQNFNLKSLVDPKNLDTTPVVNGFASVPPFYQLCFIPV
Voltage-gated inwardly rectifying potassium channel KCNH2, sequence (Q12809 whole entry): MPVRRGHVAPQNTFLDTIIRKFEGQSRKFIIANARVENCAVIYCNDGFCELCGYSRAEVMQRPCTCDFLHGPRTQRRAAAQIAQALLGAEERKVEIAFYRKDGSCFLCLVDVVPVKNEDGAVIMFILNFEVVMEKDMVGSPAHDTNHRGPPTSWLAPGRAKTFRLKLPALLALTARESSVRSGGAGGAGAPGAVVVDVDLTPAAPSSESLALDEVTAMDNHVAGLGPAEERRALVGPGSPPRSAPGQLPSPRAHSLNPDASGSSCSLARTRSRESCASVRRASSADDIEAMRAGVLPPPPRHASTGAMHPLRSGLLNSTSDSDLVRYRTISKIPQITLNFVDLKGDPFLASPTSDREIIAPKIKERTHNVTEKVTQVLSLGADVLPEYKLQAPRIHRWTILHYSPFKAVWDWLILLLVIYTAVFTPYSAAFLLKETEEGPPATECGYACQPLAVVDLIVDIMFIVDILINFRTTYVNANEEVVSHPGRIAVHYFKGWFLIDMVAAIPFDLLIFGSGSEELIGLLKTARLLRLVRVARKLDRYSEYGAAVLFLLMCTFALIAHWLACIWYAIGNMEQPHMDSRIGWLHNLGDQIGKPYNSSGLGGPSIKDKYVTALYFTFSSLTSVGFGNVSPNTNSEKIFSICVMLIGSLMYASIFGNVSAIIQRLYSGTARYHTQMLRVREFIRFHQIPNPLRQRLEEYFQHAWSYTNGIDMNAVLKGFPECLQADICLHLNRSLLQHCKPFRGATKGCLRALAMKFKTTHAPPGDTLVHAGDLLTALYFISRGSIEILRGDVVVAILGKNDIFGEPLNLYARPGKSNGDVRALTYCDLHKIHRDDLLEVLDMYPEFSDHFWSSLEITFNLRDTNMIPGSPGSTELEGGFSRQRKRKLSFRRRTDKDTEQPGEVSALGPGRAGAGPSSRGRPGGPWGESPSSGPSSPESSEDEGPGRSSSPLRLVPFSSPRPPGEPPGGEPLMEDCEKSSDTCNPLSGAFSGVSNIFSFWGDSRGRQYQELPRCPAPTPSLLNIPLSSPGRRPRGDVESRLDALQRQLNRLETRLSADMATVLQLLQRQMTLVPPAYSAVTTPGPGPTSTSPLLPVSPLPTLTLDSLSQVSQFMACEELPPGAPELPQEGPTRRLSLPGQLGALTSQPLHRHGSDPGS
Cytochrome P450 2D6, sequence (P10635 whole entry): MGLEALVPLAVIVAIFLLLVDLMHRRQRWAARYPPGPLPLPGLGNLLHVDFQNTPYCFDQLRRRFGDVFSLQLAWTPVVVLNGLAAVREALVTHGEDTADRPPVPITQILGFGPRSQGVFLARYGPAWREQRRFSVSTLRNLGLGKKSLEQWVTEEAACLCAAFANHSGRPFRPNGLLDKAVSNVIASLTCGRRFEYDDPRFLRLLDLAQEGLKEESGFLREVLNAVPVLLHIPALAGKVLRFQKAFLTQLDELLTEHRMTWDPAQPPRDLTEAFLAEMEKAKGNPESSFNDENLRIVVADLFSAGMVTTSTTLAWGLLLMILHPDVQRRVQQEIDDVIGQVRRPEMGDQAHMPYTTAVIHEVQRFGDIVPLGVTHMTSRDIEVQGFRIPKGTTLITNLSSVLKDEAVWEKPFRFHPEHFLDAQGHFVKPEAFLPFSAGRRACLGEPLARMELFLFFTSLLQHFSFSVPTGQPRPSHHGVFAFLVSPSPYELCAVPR
Cytochrome P450 3A4, sequence (P08684 whole entry): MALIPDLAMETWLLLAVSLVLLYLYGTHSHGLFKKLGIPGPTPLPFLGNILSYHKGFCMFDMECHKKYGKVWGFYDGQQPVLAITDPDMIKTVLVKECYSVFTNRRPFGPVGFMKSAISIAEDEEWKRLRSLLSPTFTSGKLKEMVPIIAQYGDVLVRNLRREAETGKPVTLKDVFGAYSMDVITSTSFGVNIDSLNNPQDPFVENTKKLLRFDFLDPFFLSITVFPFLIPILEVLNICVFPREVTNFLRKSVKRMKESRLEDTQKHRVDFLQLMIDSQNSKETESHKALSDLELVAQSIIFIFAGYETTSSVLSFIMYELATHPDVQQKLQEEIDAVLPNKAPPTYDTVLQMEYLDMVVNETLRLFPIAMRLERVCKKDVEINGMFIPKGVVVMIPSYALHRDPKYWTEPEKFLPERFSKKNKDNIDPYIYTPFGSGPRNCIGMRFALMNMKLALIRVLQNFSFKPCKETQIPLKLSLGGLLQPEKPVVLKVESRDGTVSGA
Cytochrome P450 2C19, sequence (P33261 whole entry): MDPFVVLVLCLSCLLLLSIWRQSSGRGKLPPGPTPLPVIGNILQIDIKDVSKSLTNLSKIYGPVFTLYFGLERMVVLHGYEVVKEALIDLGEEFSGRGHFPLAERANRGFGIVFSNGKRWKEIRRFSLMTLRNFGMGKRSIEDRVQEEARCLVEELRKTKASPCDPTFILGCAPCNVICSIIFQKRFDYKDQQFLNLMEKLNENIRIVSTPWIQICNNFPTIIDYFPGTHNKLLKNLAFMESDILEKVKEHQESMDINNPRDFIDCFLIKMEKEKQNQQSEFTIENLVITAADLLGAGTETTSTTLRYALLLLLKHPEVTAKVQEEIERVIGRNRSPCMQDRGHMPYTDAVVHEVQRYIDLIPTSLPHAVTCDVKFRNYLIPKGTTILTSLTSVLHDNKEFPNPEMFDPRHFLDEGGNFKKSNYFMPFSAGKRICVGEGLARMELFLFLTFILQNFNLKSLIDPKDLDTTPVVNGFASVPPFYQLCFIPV

Structure (SMILES): O=C1C[C@@H]2CC[C@H]1[C@@H](c1ccc(Cl)cc1)N2S(=O)(=O)c1ccc(Cl)cc1 (racemic)
- IC50 [1]: 1350 nM
- IC50 [2]: 182 nM
- IC50 [3]: > 10000 nM
- IC50 [4]: > 10000 nM
- Ratio IC50 (Homo sapiens [5]): > 5
- Ratio IC50 (Homo sapiens [6]): > 5

Structure (SMILES): O=S(=O)(c1ccc(Cl)cc1)N1[C@H]2CC[C@@H]([C@H]1c1cc(F)ccc1F)[C@@H](O)C2 (racemic)
- IC50 [1]: 37 nM
- IC50 [2]: 25 nM
- IC50 [3]: 370 nM
- IC50 [4]: 380 nM
- Ratio IC50 (Homo sapiens [5]): 12
- Ratio IC50 (Homo sapiens [6]): 12

Structure (SMILES): O=C1NCCCC[C@H]1N(Cc1ccc(Br)cc1)S(=O)(=O)c1ccc(Cl)cc1
- IC50 [1]: 38.3 nM
- IC50 [2]: 24.5 nM
- IC50 [3]: 4110 nM
- IC50 [4]: 1700 nM
- Ratio IC50 (Homo sapiens [5]): > 60
- Ratio IC50 (Homo sapiens [6]): > 60

Structure (SMILES): N#Cc1ccc([C@@H]2[C@@H]3CC[C@@H](C[C@@H]3O)N2S(=O)(=O)c2ccc(Cl)cc2)c(F)c1 (racemic)
- IC50 [1]: 6.9 nM
- IC50 [2]: 2.4 nM
- IC50 [3]: 147 nM
- IC50 [4]: 257 nM
- Ratio IC50 (Homo sapiens [5]): 40
- Ratio IC50 (Homo sapiens [6]): 100
- Ratio IC50 (Homo sapiens [7]): 2

Structure (SMILES): O=S(=O)(c1ccc(Cl)cc1)N1[C@H]2CC[C@@H]([C@H]1c1ccccc1Cl)[C@@H](O)C2 (racemic)
- IC50 [1]: 12 nM
- IC50 [2]: 3 nM
- IC50 [3]: 131 nM
- IC50 [4]: 214 nM
- Ratio IC50 (Homo sapiens [5]): 40
- Ratio IC50 (Homo sapiens [6]): 100
- Ratio IC50 (Homo sapiens [7]): 2

Structure (SMILES): Cc1ccc(S(=O)(=O)N2[C@H]3CC[C@H](C(=O)C3)[C@H]2c2ccc(C(F)(F)F)cc2)cc1 (racemic)
- IC50 [1]: 281 nM
- IC50 [2]: 55 nM
- IC50 [3]: > 5000 nM
- IC50 [4]: > 5000 nM
- Ratio IC50 (Homo sapiens [5]): > 100
- Ratio IC50 (Homo sapiens [6]): > 100

Structure (SMILES): COc1ccc([C@@H]2[C@@H]3CC[C@@H](CC3=O)N2S(=O)(=O)c2ccc(Cl)cc2)cn1 (racemic)
- IC50 [1]: 794 nM
- IC50 [2]: 195 nM
- IC50 [3]: > 10000 nM
- IC50 [4]: > 10000 nM
- Ratio IC50 (Homo sapiens [5]): > 5
- Ratio IC50 (Homo sapiens [6]): > 5

Structure (SMILES): O=C1C[C@@H]2CC[C@H]1[C@@H](c1ccc(F)c(F)c1)N2S(=O)(=O)c1ccc(Cl)cc1 (racemic)
- IC50 [1]: > 5370 nM
- IC50 [2]: 1120 nM
- IC50 [3]: > 10000 nM
- IC50 [4]: > 10000 nM
- Ratio IC50 (Homo sapiens [7]): > 3

Structure (SMILES): N#Cc1ccc([C@@H]2[C@@H]3CC[C@@H](C[C@@H]3O)N2S(=O)(=O)c2ccc(Cl)cc2)cn1
- IC50 [1]: 72 nM
- IC50 [2]: 12.9 nM
- IC50 [3]: 1230 nM
- IC50 [4]: 776 nM
- IC50 (Cytochrome P450 2D6): > 10000 nM
- CLH [8]: 78.4 µL/min/mg
- CLH [9]: 110 µL/min/mg
- IC50 (Cytochrome P450 3A4): > 10000 nM
- IC50 (Cytochrome P450 2C8): > 10000 nM
- IC50 (Cytochrome P450 2C9): > 10000 nM
- IC50 (Cytochrome P450 2C19): > 10000 nM
- IC50 (Cytochrome P450 1A2): > 10000 nM
- fraction unbound at 4.5 h, 5 µM [10]: 0.156
- fraction unbound at 4.5 h, 5 µM [11]: 0.0869
- fraction unbound at 5 h, 5 µM [12]: 0.119
- solubility kinetic [13]: 13 µM (≈ 5.25 µg/mL)
- solubility kinetic [14]: 13 µM (≈ 5.25 µg/mL)
- solubility kinetic [15]: 7 µM (≈ 2.83 µg/mL)
- Papp A→B at 5 µM (human MDR1 [16]): 2.5 ×10⁻⁶ cm/s
- efflux ratio at 5 µM (human MDR1 [17]): 32.3
- IC50 [18]: > 10000 nM
- IC50 (calcium channel): > 10000 nM
- IC50 (sodium channel): > 10000 nM
- concentration at 5 min [19]: 731 ng/mL
- concentration at 5 min [20]: 363 ng/g
- Kp at 5 min [21]: 0.5
- Cp(f) [22]: 63.5 ng/mL
- Kp uu at 5 min [23]: 0.68
